Source: patent US9096853B2, “Modified siRNA molecules incorporating 5-fluoro-2′-deoxyuridine residues to enhance cytotoxicity” (U.S. Department of Veterans Affairs, priority 2012, dated 2015)
d = 2'-deoxy (DNA); r = 2'-OH (RNA)

Columns and labels:
Format in all cases: cell-based, human
[1] = tested on: TS mRNA sequence in opposite orientation targeted by the sense (passenger) strand; test: Luciferase assay, vector with TS6 target site for the sense strand; details: RKO cells, ssiRNA 0.1 nM, 24 hr
Protocol: (§1) FIG. 3 illustrates the effect of 3′-end modification on ssiRNA strand selection. RKO cells were transfected with luciferase vectors (including the TS6 target site for either the antisense (open bars) or sense strand (hatched bars)) in combination with ssiRNAs containing different 3′-end overhangs. After 24 hr, cells were harvested and luciferase activity was determined as described in the Materials and Methods section. Firefly/renilla luciferase activity from vector-alone transfection was normalized to 100%. All values represent the mean±S.D. from at least 4 separate experiments performed in duplicate;
(§2) FIGS. 4A-C illustrate the effect of 3′-end dU incorporation on ssiRNA strand selection. RKO cells were transfected with various TS6 ssiRNAs (1 nM) for 6 hr. After an additional 48 hr, cells were harvested for immunoblot (A) and qPCR (B) analysis. (C) Luciferase vectors (containing the siRNA target site for either the sense or antisense strand) were transfected into RKO cells in combination with different ssiRNAs. After 24 hr, cells were harvested and luciferase activity was determined as described in the Materials and Methods section. Luciferase activity from vector-alone transfection was normalized to 100%. All values represent the mean±S.D. from at least 4 separate experiments performed in duplicate;
(§3) A DNA oligonucleotide corresponding to the TS6 siRNA target sequence (TS mRNA nt 1058-1077: 5′-[…]-3′- SEQ ID NO: 23) was annealed to its complimentary antisense sequence and ligated into the pGL3-Promoter plasmid (Promega; Madison, WI) at restriction sites Hind III and Nco I. The luciferase mRNA expressed from this plasmid was targeted by the antisense strand of TS6 siRNA. A second plasmid was constructed with the TS mRNA sequence inserted in the opposite orientation so that it could be targeted by the sense or passenger strand of TS6 siRNA. […] After 24 hr, cells were washed with PBS, lysed in 1×PLG buffer, and firefly and renilla luciferase levels were determined by the Dual-Luciferase™ Reporter Assay system (Promega). […]

[2] = tested on: thymidylate synthase (TS) protein; test: Immunoblot analysis of TS protein (free and ITC-bound), Odyssey quantitation; details: RKO cells, ssiRNA 10 nM, pre vs. 0 hr
[3] = tested on: thymidylate synthase (TS) protein; test: as above; details: RKO cells, 48 hr
Protocol: FIGS. 1A-B illustrate the effect of FdU incorporation in ssiRNA on TS protein expression. RKO cells were transfected with TS6 ssiRNAs (1 nM) containing various 3′-overhangs. After 6 hr, the medium was replaced. After an additional 48 hr, cells were harvested and processed for immunoblot and qPCR analysis as described in the Materials and Methods section. (A) Representative blot from 4 experiments. (B) All qPCR values represent the mean±S.D. from at least 3 separate experiments performed in triplicate. The normalized amount of TS mRNA from mock-transfected cells (LF2000) was set to 1.0 and all other values compared against that value. ITC, inhibitory ternary complex;
Cells were plated at a density of 1.5×10^5 cells/well. On the following day, ssiRNAs were complexed with Lipofectamine 2000 (LF2000, Invitrogen) in serum-free RPMI-1640 medium and added to the plated cells. After 48 hr, cells were rinsed with PBS and scraped in cell lysis buffer (10 mM Tris pH7.4, 150 mM NaCl, 1 mM EDTA, 1% IGEPAL, 0.5% sodium deoxycholate, and 0.1% SDS) containing freshly added Protease Inhibitor Cocktail (Sigma; St. Louis, Mo.), 1 mM phenylmethylsulfonyl fluoride, and phosphatase inhibitors (Sigma). Lysates were sonicated and then centrifuged at 14,000 rpm for 30 min at 4° C. to remove debris. Cell lysates were stored at −80° C. for future use. For mRNA analysis, total RNA was extracted using Trizol (Invitrogen) and stored at −80° C. for future use.
Protein concentrations of cell lysates were determined using the DC Protein Assay (Bio-Rad; Hercules, Calif.). Equal amounts of protein (30 μg) from each cell lysate were resolved on SDS-PAGE using the method of Laemmli (Reference 19) and transferred onto 0.45 μm nitrocellulose membranes (Bio-Rad). Membranes were blocked and incubated overnight with primary antibodies at 4° C. The following antibodies were used in the experiments: anti-TS (Clone 4H4B1; Invitrogen), anti-TS (#5449; Cell Signaling; San Francisco, Calif.), anti-p21 Waf1/Cip1 (#2947; Cell Signaling), anti-p53 (#sc-126; Santa Cruz Biotechnology; Santa Cruz, Calif.), anti-PARP (#9542; Cell Signaling), anti-Fas (#4233; Cell Signaling), anti-phospho-histone H2A.X (Ser139) (#2577; Cell Signaling), anti-histone H2A.X (#7631; Cell Signaling), anti-phospho-ATM (pS1981; EPITOMICS Inc.; Burlingame, Calif.), anti-ATM (#A1106; Sigma), and anti-α-tubulin (EMD Biosciences; San Diego, Calif.). After multiple TBST washes (1×TBS, 0.1% Tween-20), membranes were incubated with corresponding horseradish peroxidase-conjugated secondary antibodies (Bio-Rad) for 1 hr at room temperature. Proteins were detected by the enhanced chemiluminescence method (SuperSignal West Pico substrate; Pierce; Rockford, Ill.). Quantitation of signal intensities was performed by densitometry on a Xerox scanner using NIH IMAGEJ software.
Immunoblots were prepared as described above. After incubation with anti-TS polyclonal antibody, membranes were blocked with the Odyssey blocking buffer and incubated with IRDye 800CW goat anti-rabbit antibody (LI-COR Biosciences; Lincoln, Nebr., USA) according to the manufacturer instructions. The fluorescent signal was detected and quantified using the Odyssey infrared imaging system (LI-COR).

[4] = tested on: TS6 siRNA target sequence (TS mRNA nt 1058-1077) targeted by the antisense strand; test: Luciferase assay, vector with TS6 target site for the antisense strand; details: RKO cells, ssiRNA 0.1 nM, 24 hr
Protocol: as §1, §2, §3

Q: With “TS6-dU/dA: unmodified TS-targeted ssiRNA, 5 dU on 3′-end of sense strand, 5 dA on 3′-end of antisense strand; SEQ ID NO: 3 and 4 (sense GGAUAUUGUCAGUCUUUAGGUUUUU; antisense CCUAAAGACUGACAAUAUCCAAAAA; sense: sugars from the 5' end r20 d5, backbone and T or U not given here; antisense: sugars from the 5' end r20 d5, backbone not given here)” as the substance, how does the “sense strand targeting, luciferase (in words)” value [1] read?
A: significantly reduced

Q: And the “TS protein levels immediately after transfection” value [2]?
A: minimally affected

Q: What about the “suppression of expression of TS protein” value ([3]; 1 nM) of the same substance?
A: ~80%

Q: And the “Free TS (%)” value ([3]; ssiRNA 1 nM, normalized to free TS protein in mock-transfected cells (LF2000) set to 100%, mean ± S.D., 6 experiments)?
A: 22.6 ± 7.5%

Q: And the “antisense strand targeting, luciferase (in words)” value [4]?
A: maintained
